For 1 compound, solubility in water results are on record in patent publication US10434138B2, “Formulations” (Sublimity Therapeutics Limited, priority 2013, dated 2019).

For data set [1] the following is noted: cited from earlier work.
The conditions of data set [2]: conversion of the g/L value.

Counter-ions that a name gives are not always drawn. Like-named read-outs stand apart in the source and are kept apart here.

Regarding `NNc1nncc2ccccc12` [Hydralazine HCl], the solubility in water result is “approximately 8 g/L” in data set [1] and roughly 0.8% in data set [2].
